Each structure is given as a SMILES string. Read-outs that look alike come from different tables or passages of the source. A value given as a limit tells only on which side of the number the result lay.

The target in one test is T1, c-kit (Homo sapiens, UniProt P10721).
T1 construct: MO7e (human megakaryocytic leukemia cell line) which had been arrested for 20 hr; endogenous in cells; host or cells: MO7e human megakaryocytic leukemia cell line
Briefly: Inhibitory activity against c-kit autophosphorylation (MO7e cells, h-SCF). The conditions noted are these: for inhibition at 1 µM: Mo7e, figure within parentheses in −( ) or >1000( ), at 1000 nM; for IC50: MO7e cells, read-out: c-kit IC50. It is filed as cell-based. In short, it runs like this:
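In this cellular autophosphorylation assay, compound-treated MO7e cells (1 hr) were challenged with human stem cell factor at 50 ng/ml for 5 min; detection relied on PY-20 capture and anti-c-kit/HRP immunodetection at 450 nm.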

Another test addresses T2, PDGF-Ra (Homo sapiens, UniProt P16234).
T2 construct: host or cells: G-292 human osteosarcoma cells
Briefly: Inhibitory activity against PDGF-Ra phosphorylation by PDGF-AA stimulation using G292. To be noted: for IC50: > means inhibition at indicated concentration not more than 50%, < and << not less than 50%, read-out: PDGF (E) IC50; for inhibition at 0.1 µM: G292, figure within parentheses in >100( ), at 100 nM, read-out: PDGF (E) inhibition (%) at 100 nM. It is filed as cell-based. In outline: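 G-292 human osteosarcoma cells in 0.1% FBS medium overnight, given compound for 1 hr at 37° C, then PDGF-AA 50 ng/ml for 5 min. Lysates captured on anti-phosphotyrosine (PY-20) plates and probed with anti-PDGF-Ra plus HRP secondary; absorbance at 450 nm.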

T2 sequence (P16234 24-1089): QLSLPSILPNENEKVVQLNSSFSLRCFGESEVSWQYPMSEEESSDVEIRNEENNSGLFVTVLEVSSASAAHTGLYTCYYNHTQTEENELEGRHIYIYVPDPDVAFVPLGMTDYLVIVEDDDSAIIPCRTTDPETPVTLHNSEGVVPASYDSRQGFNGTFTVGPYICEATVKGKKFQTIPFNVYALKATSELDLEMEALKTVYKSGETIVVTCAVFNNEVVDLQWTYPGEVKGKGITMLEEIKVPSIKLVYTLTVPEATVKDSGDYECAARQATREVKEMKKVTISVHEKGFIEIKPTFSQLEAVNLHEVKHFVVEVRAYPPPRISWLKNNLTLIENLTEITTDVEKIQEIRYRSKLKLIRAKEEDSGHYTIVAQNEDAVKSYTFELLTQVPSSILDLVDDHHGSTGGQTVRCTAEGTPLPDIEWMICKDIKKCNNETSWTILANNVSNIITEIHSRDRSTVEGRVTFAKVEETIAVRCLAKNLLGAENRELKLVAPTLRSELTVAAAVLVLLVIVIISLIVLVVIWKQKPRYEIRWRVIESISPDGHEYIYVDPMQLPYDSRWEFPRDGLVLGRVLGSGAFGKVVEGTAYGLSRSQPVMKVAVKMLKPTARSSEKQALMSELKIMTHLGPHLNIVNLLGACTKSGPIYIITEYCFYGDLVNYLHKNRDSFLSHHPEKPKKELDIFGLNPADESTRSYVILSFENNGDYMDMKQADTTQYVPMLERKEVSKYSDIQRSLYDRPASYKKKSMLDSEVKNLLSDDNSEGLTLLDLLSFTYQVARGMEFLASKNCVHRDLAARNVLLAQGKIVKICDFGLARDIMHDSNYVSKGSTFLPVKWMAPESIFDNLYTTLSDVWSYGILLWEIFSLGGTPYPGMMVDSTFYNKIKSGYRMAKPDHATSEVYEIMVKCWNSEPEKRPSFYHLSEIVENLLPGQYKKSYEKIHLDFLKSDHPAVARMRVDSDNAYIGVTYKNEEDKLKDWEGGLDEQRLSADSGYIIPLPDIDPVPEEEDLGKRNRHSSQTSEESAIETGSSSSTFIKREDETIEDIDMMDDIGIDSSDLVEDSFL
T1 sequence (P10721 26-976): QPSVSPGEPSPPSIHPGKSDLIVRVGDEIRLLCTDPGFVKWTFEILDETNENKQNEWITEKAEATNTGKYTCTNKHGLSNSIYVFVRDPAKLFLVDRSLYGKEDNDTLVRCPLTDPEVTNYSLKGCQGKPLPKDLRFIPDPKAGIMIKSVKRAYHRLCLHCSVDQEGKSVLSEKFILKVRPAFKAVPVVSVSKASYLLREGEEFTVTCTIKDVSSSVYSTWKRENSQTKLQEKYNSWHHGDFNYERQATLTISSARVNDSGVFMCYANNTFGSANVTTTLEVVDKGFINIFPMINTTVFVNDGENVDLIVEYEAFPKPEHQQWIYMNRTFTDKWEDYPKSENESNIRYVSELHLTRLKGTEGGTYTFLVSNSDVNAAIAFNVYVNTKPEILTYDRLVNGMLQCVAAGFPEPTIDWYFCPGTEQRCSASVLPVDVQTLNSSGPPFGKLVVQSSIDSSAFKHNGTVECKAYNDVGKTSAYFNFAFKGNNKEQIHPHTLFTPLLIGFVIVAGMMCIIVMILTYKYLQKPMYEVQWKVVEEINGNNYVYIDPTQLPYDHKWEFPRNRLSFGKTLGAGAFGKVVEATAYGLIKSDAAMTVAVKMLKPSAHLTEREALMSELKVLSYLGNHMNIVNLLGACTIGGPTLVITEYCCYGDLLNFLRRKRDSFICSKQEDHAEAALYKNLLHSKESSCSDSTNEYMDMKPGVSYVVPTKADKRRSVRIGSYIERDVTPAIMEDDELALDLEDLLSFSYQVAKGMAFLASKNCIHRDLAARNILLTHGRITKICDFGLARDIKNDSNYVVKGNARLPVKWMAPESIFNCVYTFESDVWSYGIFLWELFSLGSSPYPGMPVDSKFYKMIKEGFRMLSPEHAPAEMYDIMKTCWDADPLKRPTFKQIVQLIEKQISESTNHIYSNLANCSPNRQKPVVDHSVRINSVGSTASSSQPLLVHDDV

With `COc1cc2nccc(Oc3ccc(NC(=S)NC(=O)C4(C)CC4(Cl)Cl)cc3Cl)c2cc1OC` (stereo not shown) [Example 750, N-{3-Chloro-4-[(6,7-dimethoxy-4-quinolyl)oxy]phenyl}-N′-[(2,2-dichloro-1-methylcyclopropyl)carbonyl]thiourea], the inhibition at 1 µM on c-kit turned out to be 43%. The IC50 on PDGF-Ra came out at 17 nM.
For `CCCCOc1ccc(C(=O)NC(=S)Nc2ccc(Oc3ccnc4cc(OC)c(OC)cc34)cc2)cc1` [Example 751, N-(4-Butoxybenzoyl)-N′-{4-[(6,7-dimethoxy-4-quinolyl)oxy]phenyl}thiourea], in that order: 23% and 70 nM.
Turning to `CCCCCOc1ccc(C(=O)NC(=S)Nc2ccc(Oc3ccnc4cc(OC)c(OC)cc34)cc2)cc1` [Example 753, N-{4-[(6,7-Dimethoxy-4-quinolyl)oxy]phenyl}-N′-[4-(pentyloxy)benzoyl]thiourea], the inhibition at 1 µM at c-kit was 9%. On PDGF-Ra, the IC50 is above 100 nM and the inhibition at 0.1 µM came out at 28%.
Take `COc1cc2nccc(Oc3ccc(NC(=S)NC(=O)C4C(C)(C)C4(C)C)cc3)c2cc1OC` [Example 759]: the results for the IC50 at c-kit (50 ng/ml h-SCF) and at PDGF-Ra were 323 nM and 26 nM, respectively.
As for `COc1cc2nccc(Oc3ccc(NC(=S)NC(=O)C4C(C)(C)C4(C)C)cc3Cl)c2cc1OC` [Example 760, N-{3-Chloro-4-[(6,7-dimethoxy-4-quinolyl)oxy]phenyl}-N′-[(2,2,3,3-tetramethylcyclopropyl)carbonyl]thiourea], the inhibition at 1 µM on c-kit came to 48%. In addition, the IC50 at PDGF-Ra was 83 nM.
As for `COc1cc2nccc(Oc3ccc(NC(=S)NC(=O)C(OC)c4ccccc4)cc3)c2cc1OC` (stereo not shown) [Example 761, N-{4-[(6,7-Dimethoxy-4-quinolyl)oxy]phenyl}-N′-(2-methoxy-2-phenylacetyl)thiourea], the inhibition at 1 µM at c-kit stood at 44%. Moreover, on PDGF-Ra, the IC50 is above 100 nM and the inhibition at 0.1 µM turned out to be 37%.
As for `COc1cc2nccc(Oc3ccc(NC(=S)NC(=O)C(C)Oc4ccccc4Cl)cc3)c2cc1OC` (stereo not shown) [Example 763, N-[2-(2-Chlorophenoxy)propanoyl]-N′-{4-[(6,7-dimethoxy-4-quinolyl)oxy]phenyl}thiourea], the inhibition at 1 µM at c-kit was 39%. The IC50 on PDGF-Ra was found to be 13 nM.
The like results for `COc1cc2nccc(Oc3ccc(NC(=S)NC(=O)C(C)Oc4ccccc4Cl)cc3Cl)c2cc1OC` (stereo not shown) [Example 764, N-{3-Chloro-4-[(6,7-dimethoxy-4-quinolyl)oxy]phenyl}-N′-[2-(2-chlorophenoxy)propanoyl]thiourea] were, in that order, 19% and 14 nM.
As for `COc1cc2nccc(Oc3ccc(NC(=S)NC(=O)C4CCCO4)cc3)c2cc1OC` (stereo not shown) [Example 765, N-{4-[(6,7-Dimethoxy-4-quinolyl)oxy]phenyl}-N′-tetrahydro-2-furanylcarbonylthiourea], the IC50 at c-kit (50 ng/ml h-SCF) is 937 nM; at PDGF-Ra it was 21 nM.
Take `COc1cc2ncnc(Oc3ccc(OC(=O)c4ccccc4)cc3)c2cc1OC` [Example 772, 4-[(6,7-Dimethoxy-4-quinazolinyl)oxy]phenyl benzoate]: at c-kit (50 ng/ml h-SCF), the IC50 came out at 550 nM. For the same compound, on PDGF-Ra, the IC50 was above 100 nM and the inhibition at 0.1 µM was determined as 13%.
For the compound `COc1ccccc1NCCOc1ccc(Oc2ccnc3cc(OC)c(OC)cc23)cc1` [Example 777, N-(2-{4-[(6,7-Dimethoxy-4-quinolyl)oxy]phenoxy}ethyl)-N-(2-methoxyphenyl)amine], the IC50 on c-kit (50 ng/ml h-SCF) and at PDGF-Ra was 11 nM in each case.
As to `COc1cccc(NCCOc2ccc(Oc3ccnc4cc(OC)c(OC)cc34)cc2)c1` [Example 779, N-(2-{4-[(6,7-Dimethoxy-4-quinolyl)oxy]phenoxy}ethyl)-N-(3-methoxyphenyl)amine], the IC50 on c-kit (50 ng/ml h-SCF) was 107 nM; on PDGF-Ra, below 10 nM.
The like results for `COc1cc2nccc(Oc3ccc(OCCCOc4ccc(C)cc4)cc3)c2cc1OC` [Example 790, 6,7-Dimethoxy-4-{4-[3-(4-methylphenoxy)propoxy]phenoxy}quinoline] were, in that order, 107 nM and below 3 nM.
For `COc1cc2nccc(Oc3ccc(OCCCOc4cccc(C)c4)cc3)c2cc1OC` [Example 791, 6,7-Dimethoxy-4-{4-[3-(3-methylphenoxy)propoxy]phenoxy}quinoline], in that order: 208 nM and 3 nM.
For `COc1cc2nccc(Oc3ccc(OCCCOc4ccccc4C)cc3)c2cc1OC` [Example 792, 6,7-Dimethoxy-4-{4-[3-(2-methylphenoxy)propoxy]phenoxy}quinoline], in that order: 301 nM and 6 nM.
Take `COc1cccc(OCCCOc2ccc(Oc3ccnc4cc(OC)c(OC)cc34)cc2)c1` [Example 793, 6,7-Dimethoxy-4-{4-[3-(3-methoxyphenoxy)propoxy]phenoxy}quinoline]: the IC50 was found to be 335 nM on c-kit (50 ng/ml h-SCF) and 6 nM on PDGF-Ra.
The like results for `COc1ccc(OCCCOc2ccc(Oc3ccnc4cc(OC)c(OC)cc34)cc2)cc1` [Example 794, 6,7-Dimethoxy-4-{4-[3-(4-methoxy-phenoxy)propoxy]phenoxy}quinoline] were, in that order, 192 nM and 14 nM.
The like results for `COc1cc2nccc(Oc3ccc(OCCCOc4ccccc4OC)cc3)c2cc1OC` [Example 795, 6,7-Dimethoxy-4-{4-[3-(2-methoxy-phenoxy)propoxy]phenoxy}quinoline] were, in that order, 336 nM and 5 nM.
The like results for `COc1cc2nccc(Oc3ccc(OCCCOc4ccccc4F)cc3)c2cc1OC` [Example 796, 4-{4-[3-(2-Fluorophenoxy)propoxy]phenoxy}-6,7-dimethoxyquinoline] were, in that order, 394 nM and 15 nM.
Turning to `COc1cc2nccc(Oc3ccc(OCCCOc4cccc(F)c4)cc3)c2cc1OC` [Example 797, 4-{4-[3-(3-Fluorophenoxy)propoxy]phenoxy}-6,7-dimethoxyquinoline], the IC50 on c-kit (50 ng/ml h-SCF) worked out at 403 nM; at PDGF-Ra it was 27 nM.
For `COc1cc2nccc(Oc3ccc(OCCCOc4ccc(F)cc4)cc3)c2cc1OC` [Example 798, 4-{4-[3-(4-Fluorophenoxy)propoxy]phenoxy}-6,7-dimethoxyquinoline], in that order: 439 nM and below 10 nM.
Consider `COc1cccc(NC(=O)COc2ccc(Oc3ncnc4cc(OC)c(OC)cc34)cc2)c1` [Example 800, N1-(3-Methoxyphenyl)-2-{4-[(6,7-dimethoxy-4-quinazolinyl)oxy]phenoxy}acetamide], for which the figures for the IC50 on c-kit (50 ng/ml h-SCF) and on PDGF-Ra were 30 nM and below 10 nM, respectively.
The like results for `COc1cccc(CNC(=O)COc2ccc(Oc3ncnc4cc(OC)c(OC)cc34)cc2)c1` [Example 801, N1-(3-Methoxybenzyl)-2-{4-[(6,7-dimethoxy-4-quinazolinyl)oxy]phenoxy}acetamide] were, in that order, 70 nM and 13 nM.
Consider `COc1cc2ncnc(Oc3ccc(OCC(=O)N4CCc5ccccc5C4)cc3)c2cc1OC` [Example 802, 2-{4-[(6,7-Dimethoxy-4-quinazolinyl)oxy]phenoxy}-1-(1,2,3,4-tetrahydro-2-isoquinolyl)-1-ethanone], for which the inhibition at 1 µM on c-kit is 42%. Also, the IC50 on PDGF-Ra is below 10 nM.
For `COc1cc2ncnc(Oc3ccc(OCC(=O)N4CCC(c5ccccc5)CC4)cc3)c2cc1OC` [Example 803, 2-{4-[(6,7-Dimethoxy-4-quinazolinyl)oxy]phenoxy}-1-(4-phenylpiperidino)-1-ethanone], in that order: 20% and 13 nM.
For `COc1cc2ncnc(Oc3ccc(OCC(=O)N4CCC(Cc5ccccc5)CC4)cc3)c2cc1OC` [Example 804, 1-(4-Benzylpiperidino)-2-{4-[(6,7-dimethoxy-4-quinazolinyl)oxy]phenoxy}-1-ethanone], in that order: 20% and 37 nM.
On to `COc1cc2ncnc(Oc3ccc(OCC(=O)N4CCC(N5CCCCC5)CC4)cc3)c2cc1OC` [Example 805, 2-{4-[(6,7-Dimethoxy-4-quinazolinyl)oxy]phenoxy}-1-(4-piperidinopiperidino)-1-ethanone], for which the inhibition at 1 µM on c-kit worked out at 35%. Moreover, at PDGF-Ra, the IC50 was above 100 nM and the inhibition at 0.1 µM stood at 14%.
For `CCN(CC)CCOc1ccc(Oc2ncnc3cc(OC)c(OC)cc23)cc1` [Example 807, N-(2-{4-[(6,7-Dimethoxy-4-quinazolinyl)oxy]phenoxy}ethyl)-N,N-diethylamine], the inhibition at 1 µM on c-kit was found to be 20%. Also, at PDGF-Ra, the IC50 is above 100 nM and the inhibition at 0.1 µM stood at 20%.
With `COc1cc2ncnc(Oc3ccc(OCCCOc4ccc(F)cc4)cc3)c2cc1OC` [Example 808, 4-{4-[3-(4-Fluorophenoxy)propoxy]phenoxy}-6,7-dimethoxyquinazoline], the IC50 on c-kit (50 ng/ml h-SCF) is 61 nM; on PDGF-Ra it was below 10 nM.
For the compound `COc1cccc(OCCCOc2ccc(Oc3ncnc4cc(OC)c(OC)cc34)cc2)c1` [Example 809, 6,7-Dimethoxy-4-{4-[3-(3-methoxyphenoxy)propoxy]phenoxy}quinazoline], the IC50 is 73 nM on c-kit (h-SCF stimulation) and below 10 nM on PDGF-Ra.
In the case of `COc1cc2ncnc(Oc3ccc(OCCCOc4ccccc4OC)cc3)c2cc1OC` [Example 810, 6,7-Dimethoxy-4-{4-[3-(2-methoxyphenoxy)propoxy]phenoxy}quinazoline], the IC50 on c-kit (h-SCF stimulation) came out at 269 nM; at PDGF-Ra it was 18 nM.

The inhibition is the percentage by which the read-out fell short of the control. What is called IC50 is the concentration that inhibits the measured activity by half.

These data come from patent US7135466B2 (Kirin Beer Kabushiki Kaisha, priority 1999, dated 2006).
